Results on eleven molecules are retold here after patent publication US20250215030A1, “STAT MODULATORS AND USES THEREOF” (Recludix Pharma, Inc., priority 2022, published 2025).

Like-named read-outs stand apart in the source and are kept apart here. Some results are limits rather than exact numbers.

The target in one test is T1, pSTAT6 (pY641-STAT6) (Homo sapiens, UniProt P42226).
T1 construct: host or cells: cryopreserved PBMC
T1 sequence (P42226 1-847): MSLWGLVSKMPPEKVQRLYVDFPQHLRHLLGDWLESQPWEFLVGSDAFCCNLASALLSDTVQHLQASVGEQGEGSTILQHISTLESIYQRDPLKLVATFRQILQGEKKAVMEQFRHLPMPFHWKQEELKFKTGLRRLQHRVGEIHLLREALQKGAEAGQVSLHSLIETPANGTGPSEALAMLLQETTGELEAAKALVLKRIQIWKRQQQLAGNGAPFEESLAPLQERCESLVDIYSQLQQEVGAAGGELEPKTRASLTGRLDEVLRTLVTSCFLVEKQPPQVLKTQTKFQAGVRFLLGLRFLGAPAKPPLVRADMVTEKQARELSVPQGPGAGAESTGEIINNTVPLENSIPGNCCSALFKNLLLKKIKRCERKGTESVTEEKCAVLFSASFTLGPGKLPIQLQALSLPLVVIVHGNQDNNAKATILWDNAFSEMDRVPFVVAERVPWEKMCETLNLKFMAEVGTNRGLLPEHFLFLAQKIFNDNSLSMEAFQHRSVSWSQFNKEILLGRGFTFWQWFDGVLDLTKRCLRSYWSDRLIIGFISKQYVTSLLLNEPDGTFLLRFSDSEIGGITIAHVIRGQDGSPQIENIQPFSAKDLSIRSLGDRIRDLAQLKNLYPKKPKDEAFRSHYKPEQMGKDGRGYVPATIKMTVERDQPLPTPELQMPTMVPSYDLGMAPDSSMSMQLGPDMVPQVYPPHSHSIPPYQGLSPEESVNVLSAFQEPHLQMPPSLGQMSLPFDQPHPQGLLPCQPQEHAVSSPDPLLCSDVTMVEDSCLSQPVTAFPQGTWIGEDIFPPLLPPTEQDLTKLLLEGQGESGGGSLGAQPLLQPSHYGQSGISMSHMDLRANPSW
Nature of the test: MSD-pSTAT-PBMC Assay (pSTAT6, IL-4 stimulated). Format: cell-based. The note with it: compound 3 hrs, then 1 ng/mL IL-4 for 10 min. An excerpt: Cryopreserved Peripheral Blood Mononuclear Cells (PBMC) are from AllCells. Recombinant Human IL-4 and IL-6 are from Peprotech. Mouse monoclonal anti-STAT3 antibody, rabbit monoclonal anti-pY705-STAT3 antibody, rabbit monoclonal Anti-pY641-STAT6 antibody, and lysis buffer are from Cell Signaling Technology (CST). Mouse monoclonal anti-STAT6 antibody is from BioLegend. Assay plates, blocker, and anti-rabbit secondary antibody are from Meso Scale Discovery (MSD).
Cryopreserved PBMCs were thawed out and allowed to recover overnight in IMDM+10% heat-inactivated FBS prior to plating 50,000 (STAT3) or 25,000 (STAT6) cells per well in 96-well U-bottom tissue culture plates. Cells were treated with compound for 3 hrs, then stimulated with 10 ng/mL IL-6 (STAT3) or 1 ng/mL IL-4 (STAT6) for 10 min. Cells were then spun down and washed with ice-cold PBS prior to lysing the cell pellet with 1× lysis buffer (CST) with 1× HALT protease and phosphatase inhibitor cocktail (Thermo). Lysates were transferred to and incubated overnight at 4° C. with shaking in QuickPlex 96-well high bind assay plates (MSD) pre-coated overnight with 30 μL per well of 0.6 μg/mL mouse monoclonal anti-STAT3 antibody (STAT3) or 2 μg/mL mouse monoclonal anti-STAT6 antibody (STAT6) in 1×PBS, and pre-blocked for 1 hour with 3% Blocker-A (MSD). Captured protein in the assay plates were then washed and probed with 25 μL per well of 0.25 μg/ml rabbit monoclonal anti-pY705-STAT3 antibody (STAT3) or 0.18 μg/ml rabbit monoclonal Anti-pY641-STAT6 antibody (STAT6) in 1% Blocker-A for 1 hour at room temperature with shaking, then washed and probed with 25 ul per well of 1 ug/mi Sulfo-TAG Labeled Goat Anti-Rabbit Antibody (MSD) in 1% Blocker-A for 1 hour at room temperature with shaking. Assay plates were then washed and 150 μL of 1× Read Buffer-T (MSD) was added to each well prior to reading on an SQ120 MSD Plate Reader. Assay signal from each sample was subtracted by the signal from unstimulated control wells and normalized to DMSO control wells. IC50 values were calculated using Graph Pad Prism Dose-Response Nonlinear Regression with variable slope. For both pSTAT3 and pSTAT6 A=≤100 nM; B=>100-1000 nM; C=>1000-3000 nM; and D=>3 μM.

For another test, the target named is T2, pSTAT3 (pY705-STAT3) (Homo sapiens, UniProt P40763).
T2 construct: host or cells: cryopreserved PBMC
T2 sequence (P40763 whole entry): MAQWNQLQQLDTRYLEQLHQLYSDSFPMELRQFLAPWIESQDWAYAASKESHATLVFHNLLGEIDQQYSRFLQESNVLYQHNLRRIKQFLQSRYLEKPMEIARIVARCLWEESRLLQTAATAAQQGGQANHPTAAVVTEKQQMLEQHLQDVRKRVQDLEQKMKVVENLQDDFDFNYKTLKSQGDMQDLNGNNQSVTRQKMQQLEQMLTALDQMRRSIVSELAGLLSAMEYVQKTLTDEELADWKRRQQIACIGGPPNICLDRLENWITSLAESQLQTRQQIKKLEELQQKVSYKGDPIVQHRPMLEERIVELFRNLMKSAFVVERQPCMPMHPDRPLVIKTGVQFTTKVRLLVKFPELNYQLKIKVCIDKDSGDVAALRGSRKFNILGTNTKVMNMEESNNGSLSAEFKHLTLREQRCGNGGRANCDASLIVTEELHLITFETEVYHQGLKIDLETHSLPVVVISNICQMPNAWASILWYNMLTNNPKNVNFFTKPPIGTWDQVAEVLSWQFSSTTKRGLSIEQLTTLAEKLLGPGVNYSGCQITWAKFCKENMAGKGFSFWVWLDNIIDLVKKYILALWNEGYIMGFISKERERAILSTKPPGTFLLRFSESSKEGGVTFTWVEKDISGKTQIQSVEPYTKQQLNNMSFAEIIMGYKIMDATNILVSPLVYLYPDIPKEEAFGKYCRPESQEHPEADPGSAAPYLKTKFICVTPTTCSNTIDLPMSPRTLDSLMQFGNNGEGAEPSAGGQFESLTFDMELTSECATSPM
Nature of the test: MSD-pSTAT-PBMC Assay (pSTAT3, IL-6 stimulated). Format: cell-based. The method in brief:
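Phospho-STAT levels captured on anti-STAT3 or anti-STAT6 plates and detected with anti-pY705 or anti-pY641 antibodies (MSD read-out). Cryopreserved human PBMCs received compound for 3 h before a 10 min pulse of IL-6 (10 ng/mL, STAT3) or IL-4 (1 ng/mL, STAT6). IC50 fitted after unstimulated-background subtraction and DMSO normalization.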

Setting [1] is: PBMC, compound 3 hrs, then 10 ng/mL IL-6 for 10 min, MSD pY705-STAT3, read-out: pSTAT3.

On to `CC(C)(C)C(=O)OCOP(=O)(OCOC(=O)C(C)(C)C)C(F)(F)c1ccc2sc(C(=O)N[C@H]3C[C@@H]4C[C@@H]4C[C@H]4CC[C@@H](C(=O)N5CC(N6CCOCC6)C5)N4C3=O)cc2c1` [Compound 204, (((difluoro(2-(((3S,6S,7aS, 8aR,9aR)-3-(3-morpholino-azetidine-1-carbonyl)-5-oxodecahydro-1H-cyclopropa[d]pyrrolo[1,2-a]azocin-6-yl)carbamoyl)benzo[b]thiophen-5-yl)methyl)phosphoryl)bis(oxy)) bis(methylene) bis(2,2-dimethyl-propanoate)], for which the IC50 against pSTAT6 (pY641-STAT6) is 100 to 1000 nM; on pSTAT3 (pY705-STAT3) (setting [1]), less than 100 nM.

Regarding `CC(C)CC(=O)SCCOP(=O)(Oc1ccccc1)C(F)(F)c1ccc2sc(C(=O)N[C@H]3C[C@H]4C[C@H]4C[C@H]4CC[C@@H](C(=O)N5CC(n6ccnc6)C5)N4C3=O)cc2c1` (stereo partly drawn) [Compound 196, S-(2-((((2-(((3S,6S,7aR, 8aS,9aR)-3-(3-(1H-imidazol-1-yl)azetidine-1-carbonyl)-5-oxodecahydro-1H-cyclopropa[d]pyrrolo[1,2-a]azocin-6-yl)carbamoyl)benzo[b]thiophen-5-yl)difluoromethyl) (phenoxy)phosphoryl)oxy)ethyl) 3-methylbutane thioate], the IC50 on pSTAT6 (pY641-STAT6) is greater than 3000 nM; on pSTAT3 (pY705-STAT3) (setting [1]) it was less than 100 nM.

Take `COCCCOC(=O)OCOP(=O)(OCOC(=O)OCCCOC)C(F)(F)c1ccc2sc(C(=O)N[C@H]3C[C@@H]4C[C@@H]4C[C@H]4CC[C@@H](C(=O)N5CC(C(=O)N6CCOCC6)C5)N4C3=O)cc2c1` [Compound 169, (((difluoro(2-(((3S,6S,7aS, 8aR,9aR)-3-(3-(morpholine-4-carbonyl)azetidine-1-carbonyl)-5-oxodecahydro-1H-cyclopropa [d]pyrrolo[1,2-a]azocin-6-yl)carbamoyl)benzo[b]thiophen-5-yl)methyl)phosphoryl)bis(oxy)) bis(methylene) bis(3-methoxypropyl) bis(carbonate)]: the IC50 at pSTAT6 (pY641-STAT6) was greater than 3000 nM; at pSTAT3 (pY705-STAT3) (setting [1]), 100 to 1000 nM.

`CCCOC(=O)[C@H](C)NP(=O)(Oc1ccccc1)C(F)c1ccc2sc(C(=O)N[C@H]3C[C@@H]4C[C@@H]4C[C@H]4CC[C@@H](C(=O)N5CC(c6cnccc6OCC)C5)N4C3=O)cc2c1` (stereo partly drawn) [Compound 423, propyl(((S)-(2-(((3S,6S,7aS,8aR,9aR)-3-(3-(4-ethoxypyridin-3-yl)azetidine-1-carbonyl)-5-oxodecahydro-1H-cyclopropa[d]pyrrolo[1,2-a]azocin-6-yl)carbamoyl)benzo[b]thiophen-5-yl)fluoromethyl)(phenoxy)phosphoryl)-L-alaninate] displayed an IC50 on pSTAT3 (pY705-STAT3) of less than 100 nM.

For `CC(C)(C)C(=O)SCCOP(=O)(OCCSC(=O)C(C)(C)C)C(F)(F)c1ccc2sc(C(=O)N[C@H]3C[C@@H]4C[C@@H]4C[C@H]4CC[C@@H](C(=O)N5CC(F)(c6ccc(C#N)cc6)C5)N4C3=O)cc2c1` [Compound 227, S,S′-(((((2-(((3S,6S,7aS, 8aR,9aR)-3-(3-(4-cyanophenyl)-3-fluoroazetidine-1-carbonyl)-5-oxodecahydro-1H-cyclopropa[d]pyrrolo[1,2-a]azocin-6-yl)carbamoyl)benzo[b]thiophen-5-yl)difluoromethyl)phosphoryl)bis(oxy))bis(ethane-2,1-diyl)) bis(2,2-dimethyl-propanethioate)], the IC50 on pSTAT3 (pY705-STAT3) (setting [1]) is less than 100 nM.

`CCOC(=O)[C@H](C)NP(=O)(OCC(F)(F)F)C(F)c1ccc2sc(C(=O)N[C@H]3C[C@@H]4C[C@@H]4C[C@H]4CC[C@@H](C(=O)N5CC(c6cnccc6C)C5)N4C3=O)cc2c1` (stereo partly drawn) [Compound 329, ethyl ((fluoro(2-(((3S,6S,7aS,8aR,9aR)-3-(3-(4-methylpyridin-3-yl)azetidine-1-carbonyl)-5-oxodecahydro-1H-cyclopropa[d]pyrrolo[1,2-a]azicin-6-yl)carbamoyl)benzo[b]thiophen-5-yl)methyl)(2,2,2-trifluoroethoxy)phosphoryl)-L-alaninate]: on pSTAT3 (pY705-STAT3) (setting [1]), the IC50 was less than 100 nM.

Turning to “propyl(((2-(((3S,6S,7aS,8aR,9aR)-3-((1R,5R)-2-acetyl-2,6-diazabicyclo[3.2.0]heptane-6-carbonyl)-5-oxodecahydro-1H-cyclopropa[d]pyrrolo[1,2-a]azocin-6-yl)carbamoyl)benzo[b]thiophen-5-yl)fluoromethyl)(phenoxy)phosphoryl)-L-alaninate [Compound 292]”, the IC50 on pSTAT3 (pY705-STAT3) (setting [1]) is less than 100 nM.

Turning to `CCCOC(=O)[C@H](C)N[P@@](=O)(Oc1ccccc1)[C@H](F)c1ccc2sc(C(=O)N[C@H]3C[C@H]4C[C@H]4C[C@H]4CC[C@@H](C(=O)N5CC(c6cnccc6N6CCOCC6)C5)N4C3=O)cc2c1` [Compound 396, propyl((S)-((S)-fluoro(2-(((3S,6S,7aR,8aS,9aR)-3-(3-(4-morpholinopyridin-3-yl)azetidine-1-carbonyl)-5-oxodecahydro-1H-cyclopropa[d]pyrrolo[1,2-a]azocin-6-yl)carbamoyl)benzo[b]thiophen-5-yl)methyl)(phenoxy)phosphoryl)-L-alaninate], at pSTAT3 (pY705-STAT3), the IC50 was less than 100 nM.

Consider `CCCOC(=O)[C@H](C)NP(=O)(Oc1ccccc1)C(F)c1ccc2sc(C(=O)N[C@H]3C[C@@H]4C[C@@H]4C[C@H]4CC[C@@H](C(=O)N5CC(c6cc(C(F)F)on6)C5)N4C3=O)cc2c1` (stereo partly drawn) [Compound 381, propyl(((2-(((3S,6S,7aS,8aR,9aR)-3-(3-(5-(difluoromethyl)isoxazol-3-yl)azetidine-1-carbonyl)-5-oxodecahydro-1H-cyclopropa[d]pyrrolo[1,2-a]azocin-6-yl)carbamoyl)benzo[b]thiophen-5-yl)fluoromethyl)(phenoxy)phosphoryl)-L-alaninate], for which, on pSTAT3 (pY705-STAT3), the IC50 was less than 100 nM.

Turning to `CCCOC(=O)[C@H](C)NP(=O)(Oc1ccccc1)C(F)c1ccc2sc(C(=O)N[C@H]3C[C@H]4C[C@H]4C[C@H]4CC[C@@H](C(=O)N[C@H]5CN(c6cccnc6)C[C@@H]5F)N4C3=O)cc2c1` (stereo partly drawn) [Compound 268, propyl ((fluoro(2-(((3S,6S,7aR,8aS,9aR)-3-(((3S,4S)-4-fluoro-1-(pyridin-3-yl)pyrrolidin-3-yl)carbamoyl)-5-oxodecahydro-1H-cyclopropa[d]pyrrolo[1,2-a]azocin-6-yl)carbamoyl)benzo[b]thiophen-5-yl)methyl)(phenoxy)phosphoryl)-L-alaninate], the IC50 at pSTAT3 (pY705-STAT3) (setting [1]) was less than 100 nM.

Take `CCCOC(=O)C(C)NP(=O)(Oc1ccccc1)C(F)c1ccc2sc(C(=O)N[C@H]3C[C@@H]4C[C@@H]4C[C@H]4CC[C@@H](C(=O)N5C[C@H]6[C@@H]5CCN6c5cccnc5)N4C3=O)cc2c1` (stereo in doubt) [Compound 297, propyl ((fluoro(2-(((3S,6S,7aS,8aR,9aR)-5-oxo-3-((1S,5S)-2-(pyridin-3-yl)-2,6-diazabicyclo[3.2.0]heptane-6-carbonyl)decahydro-1H-cyclopropa[d]pyrrolo[1,2-a]azocin-6-yl)carbamoyl)benzo[b]thiophen-5-yl)methyl)(phenoxy)phosphoryl)-L-alaninate]: the IC50 at pSTAT3 (pY705-STAT3) (setting [1]) was less than 100 nM.
